PubChem BioAssay (NCI)
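Tested at 5 concentrations; 48 h exposure; 96-well plates; endpoints linearly interpolated, else capped at highest concentration. At the TGI there is no net growth.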

Experiments:
Experiment in all cases: NCI tumour cell line growth inhibition, 48 h
786-0 renal = tested on: 786-0 renal
A549 NSCLC = tested on: A549 NSCLC
ACHN renal = tested on: ACHN renal
CAKI-1 renal = tested on: CAKI-1 renal
CCRF-CEM leukemia = tested on: CCRF-CEM leukemia
COLO 205 colon = tested on: COLO 205 colon
DLD-1 colon = tested on: DLD-1 colon
DMS 114 small cell lung = tested on: DMS 114 small cell lung
DMS 273 small cell lung = tested on: DMS 273 small cell lung
EKVX NSCLC = tested on: EKVX NSCLC
HCT-116 colon = tested on: HCT-116 colon
HCT-15 colon = tested on: HCT-15 colon
HL-60(TB) leukemia = tested on: HL-60(TB) leukemia
HOP-18 NSCLC = tested on: HOP-18 NSCLC
HOP-92 NSCLC = tested on: HOP-92 NSCLC
HT29 colon = tested on: HT29 colon
IGROV1 ovarian = tested on: IGROV1 ovarian
K-562 leukemia = tested on: K-562 leukemia
KM20L2 colon = tested on: KM20L2 colon
LOX IMVI melanoma = tested on: LOX IMVI melanoma
LXFL 529 NSCLC = tested on: LXFL 529 NSCLC
M14 melanoma = tested on: M14 melanoma
M19-MEL melanoma = tested on: M19-MEL melanoma
MOLT-4 leukemia = tested on: MOLT-4 leukemia
NCI-H23 lung = tested on: NCI-H23 lung
NCI-H460 lung = tested on: NCI-H460 lung
NCI-H522 lung = tested on: NCI-H522 lung
OVCAR-8 ovarian = tested on: OVCAR-8 ovarian
RPMI-8226 leukemia = tested on: RPMI-8226 leukemia
RXF 393 renal = tested on: RXF 393 renal
SF-268 CNS = tested on: SF-268 CNS
SF-539 CNS = tested on: SF-539 CNS
SK-MEL-28 melanoma = tested on: SK-MEL-28 melanoma
SK-MEL-5 melanoma = tested on: SK-MEL-5 melanoma
SK-OV-3 ovarian = tested on: SK-OV-3 ovarian
SN12C renal = tested on: SN12C renal
SNB-19 CNS = tested on: SNB-19 CNS
SW-620 colon = tested on: SW-620 colon
TK-10 renal = tested on: TK-10 renal
U251 CNS = tested on: U251 CNS
UACC-62 melanoma = tested on: UACC-62 melanoma
XF 498 CNS = tested on: XF 498 CNS
A498 renal = tested on: A498 renal
HCC-2998 colon = tested on: HCC-2998 colon
HOP-62 NSCLC = tested on: HOP-62 NSCLC
KM12 colon = tested on: KM12 colon
OVCAR-3 ovarian = tested on: OVCAR-3 ovarian
OVCAR-4 ovarian = tested on: OVCAR-4 ovarian
OVCAR-5 ovarian = tested on: OVCAR-5 ovarian
SF-295 CNS = tested on: SF-295 CNS
SNB-75 CNS = tested on: SNB-75 CNS
SNB-78 CNS = tested on: SNB-78 CNS
SR leukemia = tested on: SR leukemia
UACC-257 melanoma = tested on: UACC-257 melanoma
UO-31 renal = tested on: UO-31 renal

Cn1nc(-c2ccccc2)c(C(=O)/C=C/c2ccc(F)cc2)c(N2CCCC2)c1=O
TGI (786-0 renal): 31.2 µM | TGI (A549 NSCLC): > 100 µM | TGI (ACHN renal): 62.8 µM | TGI (CAKI-1 renal): 61.9 µM | TGI (CCRF-CEM leukemia): 27.8 µM | TGI (COLO 205 colon): 32.1 µM | TGI (DLD-1 colon): 39.4 µM | TGI (DMS 114 small cell lung): 29.1 µM | TGI (DMS 273 small cell lung): 83.3 µM | TGI (EKVX NSCLC): 52.9 µM | TGI (HCT-116 colon): 20.5 µM | TGI (HCT-15 colon): 70 µM | TGI (HL-60(TB) leukemia): 23.2 µM | TGI (HOP-18 NSCLC): 31.8 µM | TGI (HOP-92 NSCLC): 36.3 µM | TGI (HT29 colon): 15.3 µM | TGI (IGROV1 ovarian): 50.5 µM | TGI (K-562 leukemia): 38.5 µM | TGI (KM20L2 colon): 28.3 µM | TGI (LOX IMVI melanoma): > 100 µM | TGI (LXFL 529 NSCLC): 32.1 µM | TGI (M14 melanoma): 37.4 µM | TGI (M19-MEL melanoma): 33.8 µM | TGI (MOLT-4 leukemia): 31.3 µM | TGI (NCI-H23 lung): 32.7 µM | TGI (NCI-H460 lung): 91.7 µM | TGI (NCI-H522 lung): 20.7 µM | TGI (OVCAR-8 ovarian): > 100 µM | TGI (RPMI-8226 leukemia): 30.5 µM | TGI (RXF 393 renal): 22.1 µM | TGI (SF-268 CNS): 51 µM | TGI (SF-539 CNS): 28 µM | TGI (SK-MEL-28 melanoma): 32.8 µM | TGI (SK-MEL-5 melanoma): 26.9 µM | TGI (SK-OV-3 ovarian): 59.1 µM | TGI (SN12C renal): > 100 µM | TGI (SNB-19 CNS): 48.6 µM | TGI (SW-620 colon): 37.1 µM | TGI (TK-10 renal): 71.4 µM | TGI (U251 CNS): 29.2 µM | TGI (UACC-62 melanoma): 38.4 µM | TGI (XF 498 CNS): 54.2 µM

Clc1ccc(C2=Nc3ccccc3SC(c3cccs3)C2)cc1 (centres undefined)
TGI (786-0 renal): 29.8 µM | TGI (A498 renal): 28.1 µM | TGI (A549 NSCLC): 36 µM | TGI (ACHN renal): 28.7 µM | TGI (CAKI-1 renal): 31.3 µM | TGI (COLO 205 colon): 31.2 µM | TGI (DLD-1 colon): 22 µM | TGI (DMS 114 small cell lung): 31.2 µM | TGI (DMS 273 small cell lung): 27.1 µM | TGI (EKVX NSCLC): 31.3 µM | TGI (HCC-2998 colon): 30.9 µM | TGI (HCT-116 colon): 20 µM | TGI (HCT-15 colon): 27.1 µM | TGI (HOP-18 NSCLC): 35 µM | TGI (HOP-62 NSCLC): 39.3 µM | TGI (HT29 colon): 27.8 µM | TGI (IGROV1 ovarian): 28 µM | TGI (K-562 leukemia): 33.7 µM | TGI (KM12 colon): 22.5 µM | TGI (KM20L2 colon): 30.2 µM | TGI (LOX IMVI melanoma): 19.9 µM | TGI (LXFL 529 NSCLC): 31.3 µM | TGI (M14 melanoma): 30 µM | TGI (M19-MEL melanoma): 28.8 µM | TGI (MOLT-4 leukemia): > 100 µM | TGI (NCI-H23 lung): 27.2 µM | TGI (NCI-H460 lung): 32 µM | TGI (NCI-H522 lung): 32 µM | TGI (OVCAR-3 ovarian): 24 µM | TGI (OVCAR-4 ovarian): 27.2 µM | TGI (OVCAR-5 ovarian): 27.6 µM | TGI (OVCAR-8 ovarian): 30.4 µM | TGI (RPMI-8226 leukemia): 7.26 µM | TGI (RXF 393 renal): 22.7 µM | TGI (SF-268 CNS): 30.4 µM | TGI (SF-295 CNS): 28.2 µM | TGI (SF-539 CNS): 32 µM | TGI (SK-MEL-28 melanoma): 31.8 µM | TGI (SK-MEL-5 melanoma): 30.2 µM | TGI (SK-OV-3 ovarian): 30.5 µM | TGI (SN12C renal): 29.3 µM | TGI (SNB-19 CNS): 30.3 µM | TGI (SNB-75 CNS): 34.1 µM | TGI (SNB-78 CNS): 85.2 µM | TGI (SR leukemia): 62.4 µM | TGI (SW-620 colon): 25.8 µM | TGI (TK-10 renal): 31.1 µM | TGI (U251 CNS): 24.1 µM | TGI (UACC-257 melanoma): 29.4 µM | TGI (UACC-62 melanoma): 29.1 µM | TGI (UO-31 renal): 26.4 µM | TGI (XF 498 CNS): 29.8 µM
